Columns and labels:
CCRF-CEM = assay: NCI-60 one-dose screen, CCRF-CEM; format: cell-based; conditions: Homo sapiens, leukaemia, single dose 10 μM, read-out: Growth inhibition %
Experimental: (§1) Anti-proliferative effects of the counterparts 4a–g and 5a–g were screened against 60 human cancer cell lines, following the Developmental Therapeutics Program protocol, National Cancer Institute[35].
(§2) The anti-tumour activity of the fourteen synthesised congeners was investigated at the NCI against a panel of 60 cancer cell lines (NCI-60 Cell One-Dose Screen). The tested dibenzo[b,f]azepine derivatives were screened at a single dose level (10 μM), Table 1.

HL-60(TB) = assay: NCI-60 one-dose screen, HL-60(TB); format: cell-based; conditions: Homo sapiens, leukaemia, single dose 10 μM, read-out: Growth inhibition %
Experimental: as §1, §2

K-562 = assay: NCI-60 one-dose screen, K-562; format: cell-based; conditions: Homo sapiens, K562; K-562, leukaemia; single dose 10 μM; read-out: Growth inhibition %
Experimental: as §1, §2

MOLT-4 = assay: NCI-60 one-dose screen, MOLT-4; format: cell-based; conditions: Homo sapiens; MOLT-4, leukaemia; single dose 10 μM; read-out: Growth inhibition %
Experimental: as §1, §2

EKVX = assay: NCI-60 one-dose screen, EKVX; format: cell-based; conditions: Homo sapiens, non-small cell lung cancer, single dose 10 μM, read-out: Growth inhibition %
Experimental: as §1, §2

HOP-62 = assay: NCI-60 one-dose screen, HOP-62; format: cell-based; conditions: Homo sapiens; HOP-62, non-small cell lung cancer; single dose 10 μM; read-out: Growth inhibition %
Experimental: as §1, §2

HOP-92 = assay: NCI-60 one-dose screen, HOP-92; format: cell-based; conditions: Homo sapiens; HOP-92, non-small cell lung cancer; single dose 10 μM; read-out: Growth inhibition %
Experimental: as §1, §2

NCI-H23 = assay: NCI-60 one-dose screen, NCI-H23; format: cell-based; conditions: Homo sapiens; NCI-H23, non-small cell lung cancer; single dose 10 μM; read-out: Growth inhibition %
Experimental: as §1, §2

NCI-H322M = assay: NCI-60 one-dose screen, NCI-H322M; format: cell-based; conditions: Homo sapiens, non-small cell lung cancer, single dose 10 μM, read-out: Growth inhibition %
Experimental: as §1, §2

NCI-H460 = assay: NCI-60 one-dose screen, NCI-H460; format: cell-based; conditions: Homo sapiens; NCI-H460, non-small cell lung cancer; single dose 10 μM; read-out: Growth inhibition %
Experimental: as §1, §2

NCI-H522 = assay: NCI-60 one-dose screen, NCI-H522; format: cell-based; conditions: Homo sapiens; NCI-H522, non-small cell lung cancer; single dose 10 μM; read-out: Growth inhibition %
Experimental: as §1, §2

COLO 205 = assay: NCI-60 one-dose screen, COLO 205; format: cell-based; conditions: Homo sapiens; COLO 205, colon cancer; single dose 10 μM; read-out: Growth inhibition %
Experimental: as §1, §2

HCT-15 = assay: NCI-60 one-dose screen, HCT-15; format: cell-based; conditions: Homo sapiens; HCT-15, colon cancer; single dose 10 μM; read-out: Growth inhibition %
Experimental: as §1, §2

SF-295 = assay: NCI-60 one-dose screen, SF-295; format: cell-based; conditions: Homo sapiens; SF-295, CNS cancer; single dose 10 μM; read-out: Growth inhibition %
Experimental: as §1, §2

SF-539 = assay: NCI-60 one-dose screen, SF-539; format: cell-based; conditions: Homo sapiens; SF-539, CNS cancer; single dose 10 μM; read-out: Growth inhibition %
Experimental: as §1, §2

U251 = assay: NCI-60 one-dose screen, U251; format: cell-based; conditions: Homo sapiens, U-251; U251, CNS cancer; single dose 10 μM; read-out: Growth inhibition %
Experimental: as §1, §2

LOX IMVI = assay: NCI-60 one-dose screen, LOX IMVI; format: cell-based; conditions: Homo sapiens, melanoma, single dose 10 μM, read-out: Growth inhibition %
Experimental: as §1, §2

M14 = assay: NCI-60 one-dose screen, M14; format: cell-based; conditions: Homo sapiens; M14, melanoma; single dose 10 μM; read-out: Growth inhibition %
Experimental: as §1, §2

SK-MEL-5 = assay: NCI-60 one-dose screen, SK-MEL-5; format: cell-based; conditions: Homo sapiens; SK-MEL-5, melanoma; single dose 10 μM; read-out: Growth inhibition %
Experimental: as §1, §2

UACC-257 = assay: NCI-60 one-dose screen, UACC-257; format: cell-based; conditions: Homo sapiens; UACC-257, melanoma; single dose 10 μM; read-out: Growth inhibition %
Experimental: as §1, §2

UACC-62 = assay: NCI-60 one-dose screen, UACC-62; format: cell-based; conditions: Homo sapiens; UACC-62, melanoma; single dose 10 μM; read-out: Growth inhibition %
Experimental: as §1, §2

OVCAR-5 = assay: NCI-60 one-dose screen, OVCAR-5; format: cell-based; conditions: Homo sapiens; OVCAR-5, ovarian cancer; single dose 10 μM; read-out: Growth inhibition %
Experimental: as §1, §2

OVCAR-8 = assay: NCI-60 one-dose screen, OVCAR-8; format: cell-based; conditions: Homo sapiens; OVCAR-8, ovarian cancer; single dose 10 μM; read-out: Growth inhibition %
Experimental: as §1, §2

786-0 = assay: NCI-60 one-dose screen, 786-0; format: cell-based; conditions: Homo sapiens; 786-0, renal cancer; single dose 10 μM; read-out: Growth inhibition %
Experimental: as §1, §2

A498 = assay: NCI-60 one-dose screen, A498; format: cell-based; conditions: Homo sapiens; A498, renal cancer; single dose 10 μM; read-out: Growth inhibition %
Experimental: as §1, §2

ACHN = assay: NCI-60 one-dose screen, ACHN; format: cell-based; conditions: Homo sapiens, renal cancer, single dose 10 μM, read-out: Growth inhibition %
Experimental: as §1, §2

RXF 393 = assay: NCI-60 one-dose screen, RXF 393; format: cell-based; conditions: Homo sapiens; RXF 393, renal cancer; single dose 10 μM; read-out: Growth inhibition %
Experimental: as §1, §2

SN12C = assay: NCI-60 one-dose screen, SN12C; format: cell-based; conditions: Homo sapiens, renal cancer, single dose 10 μM, read-out: Growth inhibition %
Experimental: as §1, §2

PC-3 = assay: NCI-60 one-dose screen, PC-3; format: cell-based; conditions: Homo sapiens; PC-3, prostate cancer; single dose 10 μM; read-out: Growth inhibition %
Experimental: as §1, §2

MCF-7 = assay: NCI-60 one-dose screen, MCF-7; format: cell-based; conditions: Homo sapiens, MCF7; MCF-7, breast cancer; single dose 10 μM; read-out: Growth inhibition %
Experimental: as §1, §2

MDA-MB-231-ATCC = assay: NCI-60 one-dose screen, MDA-MB-231-ATCC; format: cell-based; conditions: Homo sapiens, breast cancer, single dose 10 μM, read-out: Growth inhibition %
Experimental: as §1, §2

HS 578 T = assay: NCI-60 one-dose screen, HS 578 T; format: cell-based; conditions: Homo sapiens, breast cancer, single dose 10 μM, read-out: Growth inhibition %
Experimental: as §1, §2

T-47D = assay: NCI-60 one-dose screen, T-47D; format: cell-based; conditions: Homo sapiens, T47D, breast cancer, single dose 10 μM, read-out: Growth inhibition %
Experimental: as §1, §2

MDA-MB-468 = assay: NCI-60 one-dose screen, MDA-MB-468; format: cell-based; conditions: Homo sapiens; MDA-MB-468, breast cancer; single dose 10 μM; read-out: Growth inhibition %
Experimental: as §1, §2

O=C(Cc1ccccc1)NNC(=O)N1c2ccccc2C=Cc2ccccc21 [Compound 4g, N′-(2-Phenylacetyl)-5H-dibenzo[b,f]azepine-5-carbohydrazide]
inhibition at 10 µM (CCRF-CEM): < 10%
inhibition at 10 µM (HL-60(TB)): < 10%
inhibition at 10 µM (K-562): < 10%
inhibition at 10 µM (MOLT-4): < 10%
inhibition at 10 µM (EKVX): 13.8%
inhibition at 10 µM (HOP-62): < 10%
inhibition at 10 µM (HOP-92): < 10%
inhibition at 10 µM (NCI-H23): < 10%
inhibition at 10 µM (NCI-H322M): < 10%
inhibition at 10 µM (NCI-H460): < 10%
inhibition at 10 µM (NCI-H522): < 10%
inhibition at 10 µM (COLO 205): < 10%
inhibition at 10 µM (HCT-15): < 10%
inhibition at 10 µM (SF-295): < 10%
inhibition at 10 µM (SF-539): < 10%
inhibition at 10 µM (U251): < 10%
inhibition at 10 µM (LOX IMVI): < 10%
inhibition at 10 µM (M14): < 10%
inhibition at 10 µM (SK-MEL-5): < 10%
inhibition at 10 µM (UACC-257): < 10%
inhibition at 10 µM (UACC-62): < 10%
inhibition at 10 µM (OVCAR-5): < 10%
inhibition at 10 µM (OVCAR-8): < 10%
inhibition at 10 µM (786-0): < 10%
inhibition at 10 µM (A498): < 10%
inhibition at 10 µM (ACHN): < 10%
inhibition at 10 µM (RXF 393): < 10%
inhibition at 10 µM (SN12C): < 10%
inhibition at 10 µM (PC-3): < 10%
inhibition at 10 µM (MCF-7): < 10%
inhibition at 10 µM (MDA-MB-231-ATCC): < 10%
inhibition at 10 µM (HS 578 T): < 10%
inhibition at 10 µM (T-47D): < 10%
inhibition at 10 µM (MDA-MB-468): < 10%
melting point: 134 to 136 °C

O=C(NNC(=O)N1c2ccccc2C=Cc2ccccc21)c1ccccc1 [Compound 4a, N′-Benzoyl-5H-dibenzo[b,f]azepine-5-carbohydrazide]
inhibition at 10 µM (CCRF-CEM): < 10%
inhibition at 10 µM (HL-60(TB)): < 10%
inhibition at 10 µM (K-562): < 10%
inhibition at 10 µM (MOLT-4): < 10%
inhibition at 10 µM (EKVX): < 10%
inhibition at 10 µM (HOP-62): < 10%
inhibition at 10 µM (HOP-92): < 10%
inhibition at 10 µM (NCI-H23): < 10%
inhibition at 10 µM (NCI-H322M): < 10%
inhibition at 10 µM (NCI-H460): < 10%
inhibition at 10 µM (NCI-H522): < 10%
inhibition at 10 µM (COLO 205): < 10%
inhibition at 10 µM (HCT-15): < 10%
inhibition at 10 µM (SF-295): < 10%
inhibition at 10 µM (SF-539): < 10%
inhibition at 10 µM (U251): < 10%
inhibition at 10 µM (LOX IMVI): < 10%
inhibition at 10 µM (M14): < 10%
inhibition at 10 µM (SK-MEL-5): < 10%
inhibition at 10 µM (UACC-257): < 10%
inhibition at 10 µM (UACC-62): < 10%
inhibition at 10 µM (OVCAR-5): < 10%
inhibition at 10 µM (OVCAR-8): < 10%
inhibition at 10 µM (786-0): < 10%
inhibition at 10 µM (A498): < 10%
inhibition at 10 µM (ACHN): < 10%
inhibition at 10 µM (RXF 393): < 10%
inhibition at 10 µM (SN12C): < 10%
inhibition at 10 µM (PC-3): < 10%
inhibition at 10 µM (MCF-7): < 10%
inhibition at 10 µM (MDA-MB-231-ATCC): < 10%
inhibition at 10 µM (HS 578 T): < 10%
inhibition at 10 µM (T-47D): < 10%
inhibition at 10 µM (MDA-MB-468): < 10%
melting point: 222 to 224 °C

Reference: article PMC9848257, “Design and synthesis of novel rigid dibenzo[b,f]azepines through ring closure technique as promising anticancer candidates against leukaemia and acting as selective topoisomerase II inhibitors and DNA intercalators” (Journal of Enzyme Inhibition and Medicinal Chemistry, 2023)
